For one test, the system named is A549. The experiment in a line: Inhibition of tumor cell proliferation, CellTiter-Glo, A549. Particulars: compound concentration 50 μM, 72 hours. In kind it is cell-based. In a few lines:
(§1)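 Compound tested at 50 μM for 72 h, read by CellTiter-Glo. Survival rate = (treated−blank)/(control−blank) RLU ×100, binned as +++ ≤30%, ++ >30-≤60%, + 60-<90%. Seeding 2000-10000 cells/well depending on growth rate.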
(In general: ATP-based viability assays read luminescence as a measure of living cells.)

In a further test the test system is BxPC-3. The experiment in a line: Inhibition of tumor cell proliferation, CellTiter-Glo, BxPC-3. Format: cell-based. Particulars: compound concentration 50 μM, 72 hours. The method, boiled down: as §1
Another test concerns MDA-MB-453. Description: Inhibition of tumor cell proliferation, CellTiter-Glo, MDA-MB-453. In kind it is cell-based. Conditions: compound concentration 50 μM, 72 hours. In a few lines:
as §1

In another test the target is LC3B (Homo sapiens (Human), UniProt Q9GZQ8). The experiment in a line: Fluorescence polarization experiment targeting LC3B (GST-LC3B with FITC-labeled peptide). Particulars: GST-LC3B 180 nM, FITC-labeled peptide 18 nM, 25° C. A general note: Fluorescence polarisation rises when a labelled molecule tumbles more slowly, as on binding a larger partner.
The next test deals with SU-DHL6. Description: Inhibition of tumor cell proliferation, CellTiter-Glo, SU-DHL6. Format: cell-based. Particulars: compound concentration 50 μM, 72 hours. The method, boiled down:
as §1

The next test deals with K562. Description: Inhibition of tumor cell proliferation, CellTiter-Glo, K562. Conditions: compound concentration 50 μM, 72 hours. In kind it is cell-based. The method, boiled down:
as §1

The subject of a further test is RPMI-8226. The experiment in a line: Inhibition of tumor cell proliferation, CellTiter-Glo, RPMI-8226. In kind it is cell-based. Conditions: compound concentration 50 μM, 72 hours. In a few lines: as §1

The structures appear in SMILES notation.

For orientation: IC50 means the concentration at which inhibition is half-maximal. The low end stands for higher potency, the high end for lower potency. Regarding `C[C@@H](CC(=O)Nc1cccc2c1CN(C1CCC(=O)NC1=O)C2=O)NC=C1C(=O)CC(c2ccccc2)CC1=O` (stereo partly shown) [Compound 44], the “Inhibitory activity against proliferation (cell survival rate) A549” value with A549 is recorded as “+++ (survival rate (%)≤30)”. Besides, the “Inhibitory activity against proliferation (cell survival rate) BxPC-3” value with BxPC-3 was “+ (60≤survival rate (%)<90)”. The “Inhibitory activity against proliferation (cell survival rate) MDA-MB-453” value in the test with MDA-MB-453 is given as “+ (60≤survival rate (%)<90)”. For the same compound, on LC3B, the half-maximal inhibitory concentration (IC50) was in the range of 100 to 1000 µM. Also, the “Inhibitory activity against proliferation (cell survival rate) SU-DHL6” value with SU-DHL6 is on record as “+++ (survival rate (%)≤30)”. Also, in the test with K562, the “Inhibitory activity against proliferation (cell survival rate) K562” value was “+++ (survival rate (%)≤30)”. The “Inhibitory activity against proliferation (cell survival rate) RPMI-8226” value with RPMI-8226 is listed as “+++ (survival rate (%)≤30)”.
As for `O=C1CCC(N2Cc3c(NC(=O)CCNC=C4C(=O)CC(c5ccccc5)CC4=O)cccc3C2=O)C(=O)N1` (stereo not shown) [Compound 45], the “Inhibitory activity against proliferation (cell survival rate) A549” value in the test on A549 is reported as “+ (60≤survival rate (%)<90)”. For the same compound, the “Inhibitory activity against proliferation (cell survival rate) BxPC-3” value in the test with BxPC-3 was “+ (60≤survival rate (%)<90)”. In addition, the “Inhibitory activity against proliferation (cell survival rate) MDA-MB-453” value in the test with MDA-MB-453 is “+ (60≤survival rate (%)<90)”. The same compound had an IC50 at LC3B of 100 to 1000 µM. In the test with SU-DHL6, the “Inhibitory activity against proliferation (cell survival rate) SU-DHL6” value was “+ (60≤survival rate (%)<90)”. Also, the “Inhibitory activity against proliferation (cell survival rate) K562” value in the test on K562 is “+ (60≤survival rate (%)<90)”. Also, in the test on RPMI-8226, the “Inhibitory activity against proliferation (cell survival rate) RPMI-8226” value is on record as “+ (60≤survival rate (%)<90)”.
As for `O=C1CCC(N2Cc3c(NC(=O)CCCCNC=C4C(=O)CC(c5ccccc5)CC4=O)cccc3C2=O)C(=O)N1` (stereo not shown) [Compound 46], the “Inhibitory activity against proliferation (cell survival rate) A549” value in the test with A549 is listed as “+++ (survival rate (%)≤30)”. Besides, in the test on BxPC-3, the “Inhibitory activity against proliferation (cell survival rate) BxPC-3” value is reported as “+ (60≤survival rate (%)<90)”. For the same compound, the “Inhibitory activity against proliferation (cell survival rate) MDA-MB-453” value in the test on MDA-MB-453 was “+++ (survival rate (%)≤30)”. Besides, on LC3B, the half-inhibitory concentration (IC50) was 100 to 1000 µM. Also, the “Inhibitory activity against proliferation (cell survival rate) SU-DHL6” value in the test with SU-DHL6 is listed as “+ (60≤survival rate (%)<90)”. Moreover, the “Inhibitory activity against proliferation (cell survival rate) K562” value in the test on K562 is listed as “++ (30<survival rate (%)≤60)”. The “Inhibitory activity against proliferation (cell survival rate) RPMI-8226” value with RPMI-8226 is listed as “++ (30<survival rate (%)≤60)”.
For the compound `O=C1CCC(N2Cc3c(NC(=O)CCCNC=C4C(=O)CC(c5ccccc5)CC4=O)cccc3C2=O)C(=O)N1` (stereo not shown) [Compound 47], the “Inhibitory activity against proliferation (cell survival rate) A549” value in the test with A549 is reported as “+ (60≤survival rate (%)<90)”. For the same compound, the “Inhibitory activity against proliferation (cell survival rate) BxPC-3” value with BxPC-3 was “++ (30<survival rate (%)≤60)”. In addition, the “Inhibitory activity against proliferation (cell survival rate) MDA-MB-453” value in the test on MDA-MB-453 was “+++ (survival rate (%)≤30)”. The compound also yielded a half-inhibitory concentration (IC50) against LC3B of 100 to 1000 µM. Further, the “Inhibitory activity against proliferation (cell survival rate) SU-DHL6” value with SU-DHL6 is on record as “+++ (survival rate (%)≤30)”. The “Inhibitory activity against proliferation (cell survival rate) K562” value in the test with K562 is recorded as “+ (60≤survival rate (%)<90)”. Also, the “Inhibitory activity against proliferation (cell survival rate) RPMI-8226” value with RPMI-8226 is on record as “+ (60≤survival rate (%)<90)”.
As for `O=C1CCC(N2Cc3c(NC(=O)COCCNC=C4C(=O)CC(c5ccccc5)CC4=O)cccc3C2=O)C(=O)N1` (stereo not shown) [Compound 48], the “Inhibitory activity against proliferation (cell survival rate) A549” value in the test with A549 is “+++ (survival rate (%)≤30)”. Further, the “Inhibitory activity against proliferation (cell survival rate) BxPC-3” value in the test on BxPC-3 was “+ (60≤survival rate (%)<90)”. Further, the “Inhibitory activity against proliferation (cell survival rate) MDA-MB-453” value with MDA-MB-453 is “+++ (survival rate (%)≤30)”. Also, at LC3B, the IC50 was in the range of 100 to 1000 µM. In the test on SU-DHL6, the “Inhibitory activity against proliferation (cell survival rate) SU-DHL6” value is listed as “+++ (survival rate (%)≤30)”. Moreover, the “Inhibitory activity against proliferation (cell survival rate) K562” value with K562 was “+++ (survival rate (%)≤30)”. The “Inhibitory activity against proliferation (cell survival rate) RPMI-8226” value in the test with RPMI-8226 is recorded as “+++ (survival rate (%)≤30)”.
As to `O=C1CCC(N2Cc3c(NC(=O)c4ccc(NC=C5C(=O)CC(c6ccccc6)CC5=O)cc4)cccc3C2=O)C(=O)N1` (stereo not shown) [Compound 50], in the test on A549, the “Inhibitory activity against proliferation (cell survival rate) A549” value was “+ (60≤survival rate (%)<90)”. The “Inhibitory activity against proliferation (cell survival rate) BxPC-3” value in the test with BxPC-3 is listed as “+ (60≤survival rate (%)<90)”. In addition, the “Inhibitory activity against proliferation (cell survival rate) MDA-MB-453” value in the test with MDA-MB-453 is listed as “+ (60≤survival rate (%)<90)”. This compound also displayed a concentration for half-maximal inhibition (IC50) on LC3B of 15 to 100 µM. For the same compound, in the test with SU-DHL6, the “Inhibitory activity against proliferation (cell survival rate) SU-DHL6” value is listed as “+++ (survival rate (%)≤30)”. The “Inhibitory activity against proliferation (cell survival rate) K562” value with K562 is on record as “+ (60≤survival rate (%)<90)”. In the test on RPMI-8226, the “Inhibitory activity against proliferation (cell survival rate) RPMI-8226” value is on record as “++ (30<survival rate (%)≤60)”.
As to `CC(C)[C@H](NC=C1C(=O)CC(c2ccccc2)CC1=O)C(=O)N[C@@H](CCCNC(N)=O)C(=O)Nc1cccc2c1CN(C1CCC(=O)NC1=O)C2=O` (stereo partly shown) [Compound 59], the “Inhibitory activity against proliferation (cell survival rate) A549” value in the test on A549 is recorded as “+++ (survival rate (%)≤30)”. The “Inhibitory activity against proliferation (cell survival rate) BxPC-3” value with BxPC-3 was “++ (30<survival rate (%)≤60)”. Moreover, the “Inhibitory activity against proliferation (cell survival rate) MDA-MB-453” value in the test with MDA-MB-453 was “+ (60≤survival rate (%)<90)”. The compound also came in with a concentration for half-maximal inhibition (IC50) against LC3B of 100 to 1000 µM. In addition, the “Inhibitory activity against proliferation (cell survival rate) SU-DHL6” value in the test with SU-DHL6 was “+++ (survival rate (%)≤30)”. In addition, the “Inhibitory activity against proliferation (cell survival rate) K562” value in the test on K562 is “+++ (survival rate (%)≤30)”. For the same compound, in the test on RPMI-8226, the “Inhibitory activity against proliferation (cell survival rate) RPMI-8226” value is listed as “+++ (survival rate (%)≤30)”.
Take `O=C1CCC(N2Cc3c(NC(=C4C(=O)CC(c5ccccc5)CC4=O)c4ccccc4)cccc3C2=O)C(=O)N1` (stereo not shown) [Compound 75]: the “Inhibitory activity against proliferation (cell survival rate) A549” value with A549 is “+++ (survival rate (%)≤30)”. Moreover, in the test with BxPC-3, the “Inhibitory activity against proliferation (cell survival rate) BxPC-3” value is “+ (60≤survival rate (%)<90)”. Also, in the test on MDA-MB-453, the “Inhibitory activity against proliferation (cell survival rate) MDA-MB-453” value was “+++ (survival rate (%)≤30)”. The same compound yielded an IC50 on LC3B of 100 to 1000 µM. Further, in the test on SU-DHL6, the “Inhibitory activity against proliferation (cell survival rate) SU-DHL6” value is given as “+++ (survival rate (%)≤30)”. Also, the “Inhibitory activity against proliferation (cell survival rate) K562” value in the test on K562 is “+++ (survival rate (%)≤30)”. Further, in the test on RPMI-8226, the “Inhibitory activity against proliferation (cell survival rate) RPMI-8226” value is listed as “+++ (survival rate (%)≤30)”.
In the case of `CC(C)[C@H](NC(=O)CCC(=O)OCCN1CCN(CCNC=C2C(=O)CC(c3ccccc3)CC2=O)CC1)C(=O)N[C@@H](CCCNC(N)=O)C(=O)Nc1ccc(COC(=O)Nc2cccc3c2CN(C2CCC(=O)NC2=O)C3=O)cc1` (stereo partly shown) [Compound 89], the “Inhibitory activity against proliferation (cell survival rate) A549” value in the test on A549 is recorded as “++ (30<survival rate (%)≤60)”. For the same compound, the “Inhibitory activity against proliferation (cell survival rate) BxPC-3” value with BxPC-3 is recorded as “+ (60≤survival rate (%)<90)”. Moreover, the “Inhibitory activity against proliferation (cell survival rate) MDA-MB-453” value with MDA-MB-453 is listed as “+++ (survival rate (%)≤30)”. Also, on LC3B, the IC50 lay within 15 to 100 µM. In the test on SU-DHL6, the “Inhibitory activity against proliferation (cell survival rate) SU-DHL6” value is “++ (30<survival rate (%)≤60)”. Further, in the test on K562, the “Inhibitory activity against proliferation (cell survival rate) K562” value is on record as “++ (30<survival rate (%)≤60)”. The “Inhibitory activity against proliferation (cell survival rate) RPMI-8226” value in the test with RPMI-8226 is “++ (30<survival rate (%)≤60)”.
For the compound `CC(C)[C@H](NC(=O)CN1CCN(CCNC=C2C(=O)CC(c3ccccc3)CC2=O)CC1)C(=O)N[C@@H](CCCNC(N)=O)C(=O)Nc1ccc(COC(=O)Nc2cccc3c2CN(C2CCC(=O)NC2=O)C3=O)cc1` (stereo partly shown) [Compound 90], the “Inhibitory activity against proliferation (cell survival rate) A549” value in the test on A549 is listed as “++ (30<survival rate (%)≤60)”. Besides, in the test on BxPC-3, the “Inhibitory activity against proliferation (cell survival rate) BxPC-3” value is on record as “++ (30<survival rate (%)≤60)”. Moreover, the “Inhibitory activity against proliferation (cell survival rate) MDA-MB-453” value in the test with MDA-MB-453 was “++ (30<survival rate (%)≤60)”. The same compound had a 50% inhibitory concentration (IC50) at LC3B of 15 to 100 µM. Also, the “Inhibitory activity against proliferation (cell survival rate) SU-DHL6” value in the test with SU-DHL6 is “+++ (survival rate (%)≤30)”. For the same compound, the “Inhibitory activity against proliferation (cell survival rate) K562” value with K562 is recorded as “+++ (survival rate (%)≤30)”. The “Inhibitory activity against proliferation (cell survival rate) RPMI-8226” value with RPMI-8226 is reported as “++ (30<survival rate (%)≤60)”.

The values are drawn from patent US11021457B2, “Class of isoindolone-imide ring-1,3-dione-2-ene compounds, composition and use thereof” (WIGEN BIOMEDICINE TECHNOLOGY (SHANGHAI) CO., LTD., priority 2017, dated 2021).
